US20260158017A1, “KIF18A INHIBITOR” (WIGEN BIOMEDICINE TECHNOLOGY (SHANGHAI) CO., LTD., priority 2021, published 2026)

The molecules below were run against T1, Recombinant human KIF18A (1-467His-tagged) protein (Homo sapiens, UniProt Q8NI77) (assay: KIF18A enzyme assay (microtubule-stimulated ATPase activity, ADP-Glo)). Conditions: 30 nM KIF18A, 75 μM ATP, 30 μg/mL pig microtubules; read-out: Inhibitory activity against KIF18A IC50.
T1 construct: Recombinant human KIF18A (1-467His-tagged) protein; His; made in house
T1 sequence (Q8NI77 1-467): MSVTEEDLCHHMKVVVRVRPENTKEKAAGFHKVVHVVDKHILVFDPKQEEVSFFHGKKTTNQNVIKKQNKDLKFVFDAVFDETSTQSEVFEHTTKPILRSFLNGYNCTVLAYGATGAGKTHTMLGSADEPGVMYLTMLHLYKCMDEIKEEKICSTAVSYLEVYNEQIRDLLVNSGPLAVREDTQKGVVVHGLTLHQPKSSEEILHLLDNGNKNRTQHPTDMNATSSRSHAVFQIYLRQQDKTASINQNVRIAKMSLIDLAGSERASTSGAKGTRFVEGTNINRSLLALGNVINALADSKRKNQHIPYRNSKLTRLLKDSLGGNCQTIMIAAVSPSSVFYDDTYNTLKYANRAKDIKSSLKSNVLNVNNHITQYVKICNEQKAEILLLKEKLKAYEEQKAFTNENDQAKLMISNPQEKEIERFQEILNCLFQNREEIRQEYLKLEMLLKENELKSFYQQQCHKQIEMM
T1 sequence (P02550 whole entry partner): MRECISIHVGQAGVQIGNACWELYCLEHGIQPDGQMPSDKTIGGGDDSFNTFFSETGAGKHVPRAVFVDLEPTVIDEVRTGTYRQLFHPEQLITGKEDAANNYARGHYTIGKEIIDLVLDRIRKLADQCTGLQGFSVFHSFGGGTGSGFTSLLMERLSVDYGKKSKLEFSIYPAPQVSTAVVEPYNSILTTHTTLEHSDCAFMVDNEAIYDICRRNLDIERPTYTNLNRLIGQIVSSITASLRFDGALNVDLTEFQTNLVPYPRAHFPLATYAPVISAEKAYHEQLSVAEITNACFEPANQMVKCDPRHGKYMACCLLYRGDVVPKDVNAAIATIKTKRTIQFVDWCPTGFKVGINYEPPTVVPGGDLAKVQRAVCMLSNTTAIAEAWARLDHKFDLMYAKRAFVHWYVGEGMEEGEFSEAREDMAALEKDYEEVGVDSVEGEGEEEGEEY
T1 sequence (P02554 whole entry partner): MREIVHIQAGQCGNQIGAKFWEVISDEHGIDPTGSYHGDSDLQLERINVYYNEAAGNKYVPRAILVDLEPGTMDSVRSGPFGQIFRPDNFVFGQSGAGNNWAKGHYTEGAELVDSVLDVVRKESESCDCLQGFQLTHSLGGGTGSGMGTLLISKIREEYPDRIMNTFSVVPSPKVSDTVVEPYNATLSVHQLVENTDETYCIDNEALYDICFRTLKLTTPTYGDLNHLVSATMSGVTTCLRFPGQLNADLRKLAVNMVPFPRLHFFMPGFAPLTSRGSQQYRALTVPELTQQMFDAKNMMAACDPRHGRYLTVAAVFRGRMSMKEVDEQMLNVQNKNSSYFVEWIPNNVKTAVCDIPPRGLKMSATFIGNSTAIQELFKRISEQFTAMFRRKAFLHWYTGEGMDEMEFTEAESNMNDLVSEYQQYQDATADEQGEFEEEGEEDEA
Assay type: biochemical
Method: In Vitro Assay of the Compounds of the Present Invention for Inhibiting Enzymatic Activity of KIF18A
KIF18A enzyme assay: The enzymatic activity of KIF18A after treatment with the compounds was measured by an assay of microtubule-stimulated ATPase activity. ADP generated from the ATPase reaction was measured in this assay. The compounds were serially diluted 2-fold in DMSO over a range of 22 concentration points. […] Concentrations of KIF18A protein, microtubules, and ATP in the reaction were optimized for a standardized homogenous enzyme assay using an ADP-Glo kinase/ATPase assay kit. A reaction buffer [(15 mM Tris, pH 7.5), 10 mM MgCl2, 0.01% PluronicF-68, 1 μM paclitaxel, and 30 μg/mL pig microtubules] was prepared. […] The resulting reaction mixture was incubated at room temperature for another 15 min. 5 μL of ADP-Glo reagent and 2.5 μL of the reaction mixture were mixed and the resulting mixture was incubated at room temperature for 40 min. 10 μL of ADP-Glo detection reagent was added and the mixture was incubated at room temperature for 40 min. Luminescence was read using a microplate reader and compared with that of the DMSO group, and then the inhibition percentages and IC50 values of the compounds were calculated.

C[C@@H](CO)NS(=O)(=O)c1ccc(NC(=O)c2ccc([N+](=O)[O-])c(N3CCC(F)(F)CC3)c2)c(N2CCC3(CC2)CC3)c1 [Compound 61] and C[C@H](CO)NS(=O)(=O)c1ccc(NC(=O)c2ccc([N+](=O)[O-])c(N3CCC(F)(F)CC3)c2)c(N2CCC3(CC2)CC3)c1 [Compound 62] fall in the same range of IC50: 100 to 500 nM for the first, 100 to 500 nM for the second.

C[C@@H]1CN(c2cc(C(=O)Nc3ccc(S(=O)(=O)N[C@@H](C)CO)cc3N3CCC4(CC3)CC4)ccc2[N+](=O)[O-])CCO1 [Compound 63] and C[C@H](CO)NS(=O)(=O)c1ccc(NC(=O)c2ccc([N+](=O)[O-])c(N3CCO[C@H](C)C3)c2)c(N2CCC3(CC2)CC3)c1 [Compound 64] fall in the same range of IC50: 100 to 500 nM for the first, 100 to 500 nM for the second.

C[C@@H]1CN(c2nc(NC(=O)c3ccc(NS(=O)(=O)CCO)cc3N3CCC4(CC3)CC4)ccc2[N+](=O)[O-])CCO1 [Compound 66] and C[C@H]1CN(c2nc(NC(=O)c3ccc(NS(=O)(=O)CCO)cc3N3CCC4(CC3)CC4)ccc2[N+](=O)[O-])CCO1 [Compound 67] cannot be ordered by IC50: no more than 100 nM for the first, no more than 100 nM for the second.

O=C(Nc1ccc([N+](=O)[O-])c(N2CC(F)(F)C2)n1)c1ccc(NS(=O)(=O)CCO)cc1N1CCC2(CC1)CC2 [Compound 68] and CC1(F)CCN(c2nc(NC(=O)c3ccc(NS(=O)(=O)CCO)cc3N3CCC4(CC3)CC4)ccc2[N+](=O)[O-])C1 (stereo not drawn) [Compound 72] cannot be ordered by IC50: no more than 100 nM for the first, no more than 100 nM for the second.

O=C(Nc1ccc([N+](=O)[O-])c(OCCC(F)(F)F)n1)c1ccc(NS(=O)(=O)CCO)cc1N1CCC2(CC1)CC2 [Compound 69] and O=C(Nc1ccc([N+](=O)[O-])c(OCCC(F)(F)F)n1)c1ccc(S(=O)(=O)NCCO)cc1N1CCC2(CC1)CC2 [Compound 85] cannot be ordered by IC50: no more than 100 nM for the first, no more than 100 nM for the second.

O=C(Nc1ccc([N+](=O)[O-])c(N2CCC3(CC3)C2)n1)c1ccc(NS(=O)(=O)CCO)cc1N1CCC2(CC1)CC2 [Compound 70] and O=C(Nc1ccc([N+](=O)[O-])c(N2CCOCC2)n1)c1ccc(NS(=O)(=O)CCO)cc1N1CCC2(CC1)CC2 [Compound 76] cannot be ordered by IC50: no more than 100 nM for the first, no more than 100 nM for the second.

O=C(Nc1ccc([N+](=O)[O-])c(OC2CCC2)n1)c1ccc(NS(=O)(=O)CCO)cc1N1CCC2(CC1)CC2 [Compound 71] and O=C(Nc1ccc([N+](=O)[O-])c(N2CCC(F)CC2)n1)c1ccc(NS(=O)(=O)CCO)cc1N1CCC2(CC1)CC2 [Compound 73] cannot be ordered by IC50: no more than 100 nM for the first, no more than 100 nM for the second.

O=C(Nc1ccc([N+](=O)[O-])c(N2CC3CC3C2)n1)c1ccc(NS(=O)(=O)CCO)cc1N1CCC2(CC1)CC2 (stereo not drawn) [Compound 74] and C[C@@H]1CN(c2nc(NC(=O)c3ccc(NS(=O)(=O)[C@@H](C)CO)cc3N3CCC4(CC3)CC4)ccc2[N+](=O)[O-])CCO1 [Compound 79] cannot be ordered by IC50: no more than 100 nM for the first, no more than 100 nM for the second.

CC(C)(CO)Nc1nc(NC(=O)c2ccc(NS(=O)(=O)CCO)cc2N2CCC3(CC2)CC3)ccc1[N+](=O)[O-] [Compound 75] and C[C@@H]1CN(c2nc(NC(=O)c3ccc(NS(=O)(=O)[C@H](C)CO)cc3N3CCC4(CC3)CC4)ccc2[N+](=O)[O-])CCO1 [Compound 80] cannot be ordered by IC50: no more than 100 nM for the first, no more than 100 nM for the second.

C[C@@H](CO)S(=O)(=O)Nc1ccc(C(=O)Nc2ccc([N+](=O)[O-])c(N3CCC(F)(F)CC3)n2)c(N2CCC3(CC2)CC3)c1 [Compound 77] and C[C@H](CO)S(=O)(=O)Nc1ccc(C(=O)Nc2ccc([N+](=O)[O-])c(N3CCC(F)(F)CC3)n2)c(N2CCC3(CC2)CC3)c1 [Compound 78] cannot be ordered by IC50: no more than 100 nM for the first, no more than 100 nM for the second.

O=C(Nc1ccc([N+](=O)[O-])c(N2CCC(F)(F)CC2)n1)c1ccc(S(=O)(=O)NCCO)cc1N1CCC2(CC1)CC2 [Compound 81] and O=C(Nc1ccc([N+](=O)[O-])c(N2CC(F)(F)C2)n1)c1ccc(S(=O)(=O)NCCO)cc1N1CCC2(CC1)CC2 [Compound 84] cannot be ordered by IC50: no more than 100 nM for the first, no more than 100 nM for the second.

C[C@@H]1CN(c2nc(NC(=O)c3ccc(S(=O)(=O)NCCO)cc3N3CCC4(CC3)CC4)ccc2[N+](=O)[O-])CCO1 [Compound 82] and C[C@H]1CN(c2nc(NC(=O)c3ccc(S(=O)(=O)NCCO)cc3N3CCC4(CC3)CC4)ccc2[N+](=O)[O-])CCO1 [Compound 83] cannot be ordered by IC50: no more than 100 nM for the first, no more than 100 nM for the second.
